Results reported in the Deep4Chem optical property database.
“And” between values parts separate entries of the source, which are not always exact repeats. Equal values may be shown once.

Assay: solvent given as SMILES
[1] = in O=P(c1ccccc1)(c1ccccc1)c1ccccc1Oc1ccccc1P(=O)(c1ccccc1)c1ccccc1

Work on CN1c2ccccc2C(O)(c2ccccc2)c2cc([N+](=O)[O-])ccc21 (stereo unspecified) yielded an emission maximum (in C1CCOC1) of 501.3 nm, an emission maximum (in CC#N) of 557 nm and an emission maximum (in CCO) of 536.2 nm. It also gave an emission maximum (in CO) of 544.7 nm, an emission maximum (in CS(C)=O) of 566.8 nm and an emission maximum (in Cc1ccccc1) of 480.7 nm.
With c1ccc2c(c1)Sc1ccccc1N2c1ccc2c(c1)C1(c3ccccc3-c3ccccc31)c1cc(N3c4ccccc4Sc4ccccc43)ccc1-2 the emission maximum (in Cc1ccccc1) was 498 nm.
Cc1c(C2=[N+]3C(=Cc4c(C)c5ccccc5n4[B-]3(F)F)c3ccccc32)[nH]c2ccccc12 showed an emission maximum (in C1CCOC1) of 646 nm, an emission maximum (in CC#N) of 637 nm and an emission maximum (in CCCCCC) of 644 nm. For the same compound, the emission maximum (in CO) was 643 nm, the emission maximum (in Cc1ccccc1) was 656 nm and the emission maximum (in ClCCl) was 648 nm.
COC(=O)C([NH3+])Cc1ccc2oc(-c3ccncc3)nc2c1 (stereo unspecified) showed an emission maximum (in CC1CCCCC1) of 356.11 nm, an emission maximum (in CC#N) of 367.92 nm and an emission maximum (in CO) of 379.88 nm. It also gave an emission maximum (in O) of 402.82 nm.
Work on Fc1c(F)c(-n2c3ccccc3c3ccccc32)c(F)c(F)c1-c1nnc(-c2ccccc2)o1 yielded an emission maximum (in Cc1ccccc1) of 444 nm.
Work on CCN(CC)c1ccc2c(c1)oc(=O)c1c(=O)oc3c(OC)cccc3c12 yielded an emission maximum (in CS(C)=O) of 572 nm and an emission maximum (in ClCCl) of 530 nm.
Work on Cc1ccc(C2C3=C(CCCC3=O)Nc3c2c(=O)oc2ccccc32)cc1 (stereo unspecified) yielded an emission maximum (in CS(C)=O) of 441 nm.
Work on O=C(c1ccc(N2c3ccccc3Oc3ccccc32)cc1)c1ccc2sc3ccccc3c2c1 yielded an emission maximum (in C1CCOC1) of 594 nm and an emission maximum (in c1ccc2c(c1)c1ccccc1n2-c1ccc(-c2ccc(-n3c4ccccc4c4ccccc43)cc2)cc1) of 524 nm.
CC1(C)c2ccccc2N(c2ccc3c(c2)c2cc(N4c5ccccc5C(C)(C)c5ccccc54)ccc2c2nc4ccccc4nc32)c2ccccc21 showed an emission maximum (in Cc1ccccc1) of 553 nm and an emission maximum (in c1cc(-c2cccc(-n3c4ccccc4c4ccccc43)c2)cc(-n2c3ccccc3c3ccccc32)c1) of 565 nm.
COc1cc2c(cc1OC)C1=C[C@H](c3ccccc3)C3(C(C#N)=C(C#N)N1CC2)c1cc(Br)ccc1-c1ccc(Br)cc13 showed an emission maximum (in ClCCl) of 403 nm.
In the case of COc1ccc2c(c1)c1c(OC)c3ccccc3c(OC)c1n2C, the emission maximum (in C1CCCCC1) was 431 nm, the emission maximum (in CC#N) was 445 nm and the emission maximum (in CO) was 441 nm. It also gave an emission maximum (in ClCCl) of 443 nm.
With O=Cc1cnc(-c2c3ccccc3cc3ccccc23)nc1 the emission maximum (in CCO) was 438 nm and the emission maximum (in ClCCl) was 531 nm.
In the case of COc1ccc(C#Cc2c3ccccc3c(C#Cc3ccc(OC)cc3)c3ccccc23)cc1, the emission maximum (in ClCCl) was 492 nm.
With C(/C=C/c1cc2c3c(c1)CCCN3CCC2)=C\c1ccncc1 the emission maximum (in C1COCCO1) was 518 nm, the emission maximum (in CC#N) was 569 nm and the emission maximum (in CCCCCCC) was 442 nm. The emission maximum (in CO) was 583 nm.
CN(C)c1ccc(/C=C/c2nc3c4ccccc4c4ccccc4c3[nH]2)cc1 showed an emission maximum (in C1CCOC1) of 463 nm, an emission maximum (in C1COCCO1) of 436 nm and an emission maximum (in CC1CCCCC1) of 430 nm. It also gave an emission maximum (in CC#N) of 476 nm, an emission maximum (in CCOC(C)=O) of 460 nm and an emission maximum (in CCOCC) of 448 nm. The emission maximum (in CN(C)C=O) was 478 nm, the emission maximum (in COC(C)=O) was 471 nm and the emission maximum (in CS(C)=O) was 480 nm. The emission maximum (in Cc1ccccc1) was 436 nm and the emission maximum (in ClC(Cl)Cl) was 467 nm.
Compound COC(=O)[C@H](Cc1ccc2oc3c(c2c1)=CC1=C(c2ccc(OC)cc2)c2cc4c5cc(C[C@H](NC(=O)OC(C)(C)C)C(=O)OC)ccc5oc4n2[B-](F)(F)[N+]=31)NC(=O)OC(C)(C)C has an emission maximum (in C1CCCCC1) of 596.5 nm, an emission maximum (in CCOC(C)=O) of 597 nm and an emission maximum (in CO) of 595 nm.
With c1ccc(N(c2ccccc2)c2ccc(-c3ccc4c(c3)C3(c5ccccc5Oc5ccccc53)c3cc(-c5ccc(N(c6ccccc6)c6ccccc6)cc5)ccc3-4)cc2)cc1 the emission maximum (in ClCCl) was 457 nm and the emission maximum (in c1cc(-n2c3ccccc3c3ccccc32)cc(-n2c3ccccc3c3ccccc32)c1) was 441 nm.
c1ccc2c(c1)-c1ccccc1C21c2ccccc2N(c2ccc(-c3nc([C@]45CC6CC(C[C@@H](C6)C4)C5)nc([C@]45C[C@H]6C[C@@H](C[C@H](C6)C4)C5)n3)cc2)c2ccccc21 showed an emission maximum (in CC(C)(C)c1ccc(-n2c3ccc([Si](c4ccccc4)(c4ccccc4)c4ccccc4)cc3c3cc([Si](c4ccccc4)(c4ccccc4)c4ccccc4)ccc32)cc1) of 448.69 nm and an emission maximum (in Cc1ccccc1) of 454.71 nm.
C(=C\c1ccc(-c2nnc(-c3ccc(/C=C/c4ccc(-c5nc(-c6ccccc6)c(-c6ccccc6)[nH]5)cc4)cc3)o2)cc1)/c1ccc(-c2nc(-c3ccccc3)c(-c3ccccc3)[nH]2)cc1 showed an emission maximum (in C1CCOC1) of 492 nm, an emission maximum (in CC#N) of 525 nm and an emission maximum (in CN(C)C=O) of 524 nm. The emission maximum (in Cc1ccccc1) was 445 nm.
CCOC(=O)c1ccccc1-c1c2ccc(=[N+](CC)CC)cc-2oc2c1oc1cc(N)ccc12 showed an emission maximum (in CCO) of 640 nm, an emission maximum (in ClCCl) of 627 nm and an emission maximum (in O) of 645 nm.
Compound CCCCC1=Cc2c3ccc4cccc5ccc(c6cc(-c7ccccc7)n(c26)P1(=O)c1ccccc1)c3c45 (stereo unspecified) has an emission maximum (in C1CCCCC1) of 452 nm, an emission maximum (in C1CCOC1) of 459 nm and an emission maximum (in C1COCCO1) of 460 nm. For the same compound, the emission maximum (in CC#N) was 459 nm, the emission maximum (in CC(C)=O) was 459 nm and the emission maximum (in CO) was 459 nm. For the same compound, the emission maximum (in Cc1ccccc1) was 460 nm, the emission maximum (in ClC(Cl)Cl) was 458 nm and the emission maximum (in ClCCl) was 459 nm.
Compound COc1ccc(/C=C2\OC(=O)c3cc(N)ccc32)cc1 has an emission maximum (in CC#N) of 450.25 nm, an emission maximum (in CC(C)=O) of 446.03 nm and an emission maximum (in CC(C)CO) of 474.83 nm. The emission maximum (in CC(C)O) was 481.23 nm, the emission maximum (in CCCO) was 482.63 nm and the emission maximum (in CCO) was 485.44 nm. For the same compound, the emission maximum (in CCOC(C)=O) was 445.04 nm, the emission maximum (in CCOCC) was 443.26 nm and the emission maximum (in CO) was 486.14 nm.
CCOC(=O)c1c(-c2cc3ccccc3oc2=O)nn(-c2ccc(Br)cc2)c1C(=O)OCC showed an emission maximum (in ClCCl) of 400 nm.
CCCCCCOc1ccc(/C=C/c2ccc(N(c3ccc(/C=C/c4ccc(OCCCCCC)cc4)cc3)c3ccc(-c4nc5ccccc5nc4-c4ccc(N(c5ccc(/C=C/c6ccc(OCCCCCC)cc6)cc5)c5ccc(/C=C/c6ccc(OCCCCCC)cc6)cc5)cc4)cc3)cc2)cc1 gave an emission maximum (in C1CCOC1) of 518 nm and an emission maximum (in Cc1ccccc1) of 505 nm.
CCCC(=O)c1c(OCOC)c(OCOC)c(C(=O)CCC)c2c1OCO2 gave an emission maximum (in CC#N) of 503 nm.
For CN(C)c1ccc(C2=Nc3sc4ccccc4[n+]3[B-](F)(F)O2)cc1, the emission maximum (in C1CCOC1) was 469 nm, the emission maximum (in CC#N) was 486 nm and the emission maximum (in CC(C)=O) was 482 nm. For the same compound, the emission maximum (in Cc1ccccc1) was 450 nm and the emission maximum (in ClCCl) was 467 nm.
In the case of c1ccc(-c2nc(-c3ccccc3)nc(-c3ccc(-n4c5ccc(-n6c7ccccc7c7ccccc76)cc5c5cc(-n6c7ccccc7c7ccccc76)ccc54)cc3)n2)cc1, the emission maximum (in Cc1ccccc1) was 458 nm and the emission maximum [1] was 475 nm and 450.31 nm.
Compound COc1ccc(-c2cc(-c3ccc(C#N)cc3)nn2C)cc1 has an emission maximum (in ClCCl) of 384 nm.
With C(S/C=C/c1ccc(/C=C/SC=C2CCCCCC2)cc1)=C1CCCCCC1 the emission maximum (in ClCCl) was 422 nm.
In the case of c1ccc(-c2nc(-c3ccccc3)nc(-c3ccc(-n4c5ccccc5c5cc6c(cc54)C4(c5ccccc5-c5ccccc54)c4ccccc4-6)cc3)n2)cc1, the emission maximum (in C1CCOC1) was 492.65 nm, the emission maximum (in CCCCCC) was 396.27 nm and the emission maximum (in Cc1ccccc1) was 432 nm. For the same compound, the emission maximum (in ClCCl) was 501.47 nm and the emission maximum [1] was 470 nm.
Compound Clc1ccccc1-c1nc2sc3ccccc3c2s1 has an emission maximum (in CS(C)=O) of 412 nm.
Compound CCn1c(-c2ccc(-c3ccc(-c4ccc(-c5n(CC)c6cc(C)ccc6[n+]5CC)cc4)cc3)cc2)[n+](CC)c2ccc(C)cc21 has an emission maximum (in O) of 397 nm.
With CCOC(=O)c1c(-c2c(Cl)c3cc(C)ccc3oc2=O)nn(-c2ccccc2)c1C(=O)OCC the emission maximum (in ClCCl) was 417 nm.
Work on COc1ccc(-n2cccc2)cc1 yielded an emission maximum (in CC#N) of 327 nm and an emission maximum (in CCCCCC) of 324 nm.
For COc1ccc(C2=C(c3ccc(OC)cc3)c3cccc4c5c(cc(c34)O2)=NC(C#N)C(C#N)N=5)cc1 (stereo unspecified), the emission maximum (in ClCCl) was 632 nm.
For CN1c2cc3nc4cc(Cl)c(Cl)cc4nc3cc2N(C)C1(C)C, the emission maximum (in CCO) was 497 nm.
In the case of C[C@@]12SC(Cl)=CC1=c1nc(-c3ccccc3)[nH]c1=C1C=C(Cl)S[C@]12C, the emission maximum (in CC#N) was 452 nm.
